These results are taken from patent US12359176B2, “Engineered cells for production of indole-derivatives” (priority 2019, dated 2025).

Common to all, as to format: cell-based
Experiment [1] has as its system E. coli. Put plainly: Growth of E. coli in the presence of melatonin. The method, then: FIG. 2. High-concentration of melatonin decreased cell growth of E. coli. Melatonin stock-solution was made by dissolving melatonin into 70% ethanol (ETOH). The growth medium was M9 supplemented with 0.2% glucose and 2 to 7 g/L melatonin. […] The ordinate scale reflects optical density.
(§1) The E. coli Keio strains (single gene deleted strains) were inoculated into 400 μl of M9+0.2% glucose media supplemented with kanamycin (50 μg/ml) in 96 deep well-plate picking the single colonies in LB-agar plates. Then, the plate was incubated at 30° C. with 300 rpm overnight (incubated for 18-24 h). The wild type strain E. coli BW25113 was used as a control. The following day, the saturated pre-cultures were diluted 100 fold into 300 μl of M9+0.2% glucose media (and antibiotics as required) supplemented with 4.4% of ethanol or 4.4% of ethanol and 4.4 g/L of melatonin so that the resulting final concentration would be 4% of ethanol and 4 g/L of melatonin in 96 well MTP plate. In case of the RBS library of yhjV, screening was performed at 5 g/L of melatonin instead of 4 g/L. Then, the culture plates were incubated in Growth Profiler (Enzyscreen, Heemstede, Netherland) at 30° C. and 250 RPM for 48 h with constant monitoring of the growth by taking picture in every 20 minutes interval. Using the GP software (GP960Viewer version 1.0.0.4, Enzyscreen, Heemstede, Netherland), the pictures data was converted into digital OD600 nm values and the growth curves were compared.
In order to elucidate whether melatonin production at high titers is toxic to E. coli, we tested the growth of E. coli strain in the presence of different concentrations of melatonin. Melatonin was externally added into M9 medium supplemented with 0.2% glucose and the growth curves were monitored. […] Compared to the control, the biomass yield decreased ˜30% at 2 g/L melatonin, and further decreased about 30% at 7 g/l melatonin.

The test system of experiment [2] is E. coli Keio strains (single gene deleted strains). Put plainly: Growth Profiler growth test of transporter knockout (Keio) strains in 4 g/L melatonin. As to conditions: 4% ethanol, M9+0.2% glucose, vs BW25113 control strain. On the procedure:
as §1
To identify any melatonin-specific native transporters in E. coli, an E. coli knockout library of 430 strains was screened, testing cell growth in the presence of 4 g/L (or 5 g/L) melatonin using the Growth Profiler. In such a screen, improved growth parameters (especially higher growth rate and/or lower lag time) compared to wild-type strain can be expected in case an importer is knocked-out, whereas decreased growth parameters can be expected in case an exporter is knocked-out (FIG. 3).
The growth curves of the five selected transporter candidate deletion strains (target candidate knocked-out Keio strains) were accessed after running growth profiler experiments as mentioned above.

In experiment [3] the test system is E. coli YhjV knockout (HMP3406_YhjV KO). Put plainly: Growth test of yhjV knockout strain in tryptophan. The note with it: 1 mM tryptophan, M9 with 0.2% glucose, 30° C., 48 h. On the procedure:
This Example describes testing the influence of YhjV on the uptake of amino acids. The growth test was performed using M9 medium supplemented with 0.2% glucose and 1 mM tryptophan, as well as appropriate antibiotics (100 mg/L ampicillin or 50 mg/L kanamycin). The growth curves were monitored with Growth Profiler (Enzyscreen, Heemstede, Netherland) at 30° C. and 250 RPM for 48 h.
We first tested how YhjV transporter affects the growth of E. coli tryptophan. We followed the growth curves of E. coli wild type BW25113 (HMP0_wt), YhjV knockout (HMP3406_YhjV KO) and YhjV overexpression (HMP3405_YhjV O. E., made by transforming pHM635 into HMP0) in M9 medium containing 0.2% glucose supplemented with 1 mM tryptophan.

Regarding `COc1ccc2[nH]cc(CCNC(C)=O)c2c1` [melatonin], the “biomass yield decrease compared to the control” value in experiment [1] (2 g/L melatonin, M9 medium with 0.2% glucose, control contains 4% ETOH) was “about 30%”. Also, the “further biomass yield decrease” value in experiment [1] (7 g/l melatonin, M9 medium with 0.2% glucose, control contains 4% ETOH) is listed as “about 30%”. Further, in experiment [1] (high concentrations of melatonin (2 to 7 g/L), M9 with 0.2% glucose), the “effect on E. coli growth” value is “inhibited E. coli growth”. In experiment [2], the “growth of acrB deletion strain” value was “no growth at all”; the “growth of argO deletion strain” value is “reduced growth rates”; the “growth of garP deletion strain” value was “longer lag time and reduced growth rate”; the “growth of lysP deletion strain” value is reported as “reduced growth rates”. Besides, the “growth of yhjV deletion strain” value in experiment [2] was “longer lag time and reduced growth rate”.

Consider `N[C@@H](Cc1c[nH]c2ccccc12)C(=O)O` [tryptophan, L-tryptophan], for which the “growth of YhjV knockout compared to the wild type” value in experiment [3] is reported as “much lower biomass yield”.
